This series can be described thus: in vitro. To be noted: human, hela cells, % viability.
As to `COc1ccc(-c2ccccc2)cc1NS(=O)(=O)c1ccc2c(c1)CCC(=O)N2` [CBK286368], the viability at 28.5 h, 10 µM worked out at 100%.

Consider `COc1ccc(-c2ccccc2NS(=O)(=O)c2ccc3c(c2)CCC(=O)N3)cc1` [CBK286370], for which the viability at 28.5 h, 10 µM was 96.8%.

Take `O=C1CCc2cc(S(=O)(=O)Nc3cccc(-c4ccc(F)cc4)c3)ccc2N1` [CBK286371]: the viability at 28.5 h, 10 µM was 102%.

On to `COc1cccc(-c2ccc(NS(=O)(=O)c3ccc4c(c3)CCC(=O)N4)cc2)c1` [CBK286373], for which the viability at 28.5 h, 10 µM turned out to be 87.1%.

Take `O=c1[nH]c(=O)c2cc(S(=O)(=O)NC(c3ccccc3)c3ccccc3)ccc2[nH]1` [CBK286375]: the viability at 28.5 h, 10 µM was 89.4%.

For `O=c1[nH]c(=O)c2cc(S(=O)(=O)Nc3ccccc3Cc3ccccc3)ccc2[nH]1` [CBK286377], the viability at 28.5 h, 10 µM worked out at 94.3%.

As for `O=c1[nH]c(=O)c2cc(S(=O)(=O)NC3(c4ccccc4)CCCC3)ccc2[nH]1` [CBK286378], the viability at 28.5 h, 10 µM was 110%.

`O=c1[nH]c(=O)c2cc(S(=O)(=O)NC3CCN(Cc4ccccc4)C3)ccc2[nH]1` (stereo not shown) [CBK286380]: the viability at 28.5 h, 10 µM is 109%.

With `CN(C)C(CNS(=O)(=O)c1ccc2[nH]c(=O)[nH]c(=O)c2c1)c1ccccc1Cl` (stereo not shown) [CBK286385], the viability at 28.5 h, 10 µM worked out at 86.7%.

As for `CCCC1c2cccn2CCN1S(=O)(=O)c1ccc2[nH]c(=O)[nH]c(=O)c2c1` (stereo not shown) [CBK286388], the viability at 28.5 h, 10 µM stood at 101%.

Take `O=c1[nH]c(=O)c2cc(S(=O)(=O)NCC3(N4CCOCC4)CCCCC3)ccc2[nH]1` [CBK286390]: the viability at 28.5 h, 10 µM is 105%.

As for `O=c1[nH]c(=O)c2cc(S(=O)(=O)N3CCCC(CN4CCCC4)C3)ccc2[nH]1` (stereo not shown) [CBK286392], the viability at 28.5 h, 10 µM stood at 88.8%.

With `O=c1[nH]c(=O)c2cc(S(=O)(=O)N3CCCCC3CN3CCCCC3)ccc2[nH]1` (stereo not shown) [CBK286393], the viability at 28.5 h, 10 µM worked out at 83.5%.

Take `O=c1[nH]c(=O)c2cc(S(=O)(=O)Nc3cccc(-c4ccc(F)cc4)c3)ccc2[nH]1` [CBK286394]: the viability at 28.5 h, 10 µM was found to be 84.2%.

Take `O=c1[nH]c(=O)c2cc(S(=O)(=O)NCc3ccccc3CN3CCCC3)ccc2[nH]1` [CBK286395]: the viability at 28.5 h, 10 µM turned out to be 108%.

As for `COc1cc2c(cc1CNS(=O)(=O)c1ccc3[nH]c(=O)[nH]c(=O)c3c1)CCC2` [CBK286396], the viability at 28.5 h, 10 µM worked out at 98.7%.

For the compound `O=c1[nH]c(=O)c2cc(S(=O)(=O)Nc3cccc(CCc4ccncc4)c3)ccc2[nH]1` [CBK286397], the viability at 28.5 h, 10 µM came to 103%.

On to `COc1ccc2c(c1)C(O)CC1(CCN(CC(O)c3ccc(-c4ccccc4)cc3)CC1)O2` (stereo not shown) [CBK286398], for which the viability at 28.5 h, 10 µM was 101%.

With `Cc1cc2c(cc1C)C(O)CC1(CCN(CC(=O)NC3CCCCC3)CC1)O2` (stereo not shown) [CBK286399], the viability at 28.5 h, 10 µM amounted to 94%.

In the case of `C[C@]12CN(Cc3cccc(C#Cc4ccccc4)c3)C[C@H]1C(=O)Nc1ccccc1C(=O)N2` [CBK286403], the viability at 28.5 h, 10 µM amounted to 94.9%.

In the case of `Cc1cc(C2CCCCCN2S(=O)(=O)c2ccc3[nH]c(=O)[nH]c(=O)c3c2)no1` (stereo not shown) [CBK286404], the viability at 28.5 h, 10 µM came to 94.2%.

On to `Cn1cc(Cl)c(C2CCCCCN2S(=O)(=O)c2ccc3[nH]c(=O)[nH]c(=O)c3c2)n1` (stereo not shown) [CBK286408], for which the viability at 28.5 h, 10 µM amounted to 89.3%.

On to `O=C(c1ccc2c(c1)N(Cc1ccc(F)cc1)C(=O)CO2)c1cccs1` [CBK286410], for which the viability at 28.5 h, 10 µM is 92.3%.

On to `O=C(c1ccc2c(c1)N(Cc1ccccc1Cl)C(=O)CO2)c1cccs1` [CBK286411], for which the viability at 28.5 h, 10 µM amounted to 94.2%.

`COc1cccc(CN2C(=O)COc3ccc(C(=O)c4cccs4)cc32)c1` [CBK286412]: the viability at 28.5 h, 10 µM was determined as 96.1%.

Take `c1ccc(C(Nc2ncc(-c3cnccn3)c(-c3ccco3)n2)c2ccccc2)cc1` [CBK286413]: the viability at 28.5 h, 10 µM came to 90%.

Consider `COc1ccc(F)cc1-c1ccccc1CC1(C(=O)NCc2cccs2)CCOCC1` [CBK286416], for which the viability at 28.5 h, 10 µM was found to be 93.7%.

With `Cc1ccc(-c2ccccc2CC2(C(=O)O)CCN(Cc3ccccc3F)CC2)c(C)c1` [CBK286418], the viability at 28.5 h, 10 µM is 96.7%.

As for `COc1cccc(CN2CCC(Cc3ccccc3-c3ccc(C)cc3C)(C(=O)O)CC2)c1` [CBK286420], the viability at 28.5 h, 10 µM was determined as 95.5%.

As for `COc1ccc(CN2CCC(Cc3ccccc3-c3ccc(C)cc3C)(C(=O)O)CC2)cc1` [CBK286421], the viability at 28.5 h, 10 µM amounted to 88.5%.

For the compound `Cc1ccc(-c2ccccc2CC2(C(=O)Nc3ccc(C(N)=O)cc3)CCOCC2)c(C)c1` [CBK286422], the viability at 28.5 h, 10 µM was found to be 95.9%.

Turning to `Cc1ccc(-c2ccccc2CC2(C(=O)Nc3cccc(C(N)=O)c3)CCOCC2)c(C)c1` [CBK286423], the viability at 28.5 h, 10 µM is 92.7%.

With `COc1ccc(F)cc1-c1ccccc1CC1(C(=O)NCCc2ccccc2)CCOCC1` [CBK286424], the viability at 28.5 h, 10 µM turned out to be 97.5%.

`COc1ccccc1-c1ccccc1CC1(C(=O)NCc2ccc(F)cc2)CCOCC1` [CBK286425]: the viability at 28.5 h, 10 µM was found to be 90%.

Take `COc1ccccc1-c1ccccc1CC1(C(=O)NCc2cccc(F)c2)CCOCC1` [CBK286426]: the viability at 28.5 h, 10 µM is 96.9%.

For the compound `COc1ccc(-c2ccccc2CC2(C(=O)NCc3cccs3)CCOCC2)cc1` [CBK286429], the viability at 28.5 h, 10 µM was 92.3%.

Consider `Cc1ccc(CO)cc1NC(=O)[C@@H]1CN(Cc2ccccc2)C[C@H]1C(=O)c1ccc(F)cc1` [CBK286431], for which the viability at 28.5 h, 10 µM amounted to 105%.

Take `CC(=O)N1CCc2sccc2C1c1ccc(NC(=O)c2ccccc2F)cc1` (stereo not shown) [CBK286433]: the viability at 28.5 h, 10 µM turned out to be 84.2%.

Regarding `CC(=O)N1CCc2sccc2C1c1ccccc1NC(=O)c1ccco1` (stereo not shown) [CBK286436], the viability at 28.5 h, 10 µM is 98.1%.

Regarding `OC(CN1CCC(O)(Cn2cnc3ccccc32)CC1)c1ccc(-c2ccccc2)cc1` (stereo not shown) [CBK286437], the viability at 28.5 h, 10 µM worked out at 89%.

As to `CC1Cc2cc(C(O)CN3CCCC3)ccc2N1C(=O)C1CC1` (stereo not shown) [CBK286440], the viability at 28.5 h, 10 µM worked out at 94.9%.

As for `CC(=O)N1CCc2sccc2C1c1ccc(NCc2ccc(F)cc2)cc1` (stereo not shown) [CBK286442], the viability at 28.5 h, 10 µM was 90.3%.

Regarding `COc1ccc(CNc2ccc(C3c4ccsc4CCN3C(C)=O)cc2)cc1` (stereo not shown) [CBK286444], the viability at 28.5 h, 10 µM stood at 102%.

With `COCC(=O)N1CCc2sccc2C1c1ccc(NCc2ccccc2F)cc1` (stereo not shown) [CBK286446], the viability at 28.5 h, 10 µM was 96.6%.

As to `O=C(NCc1cccs1)c1ccc2c(=O)n3c(nc2c1)CCN(Cc1ccccc1)CC3` [CBK286448], the viability at 28.5 h, 10 µM is 100%.

On to `Cc1nn(-c2ccccc2)c2nc(O)c(CNC(c3ccccc3)c3ccco3)cc12` (stereo not shown) [CBK286449], for which the viability at 28.5 h, 10 µM amounted to 83.8%.

In the case of `CC(=O)N1CCc2sccc2C1c1ccc(NCc2ccc(F)c(F)c2)cc1` (stereo not shown) [CBK286452], the viability at 28.5 h, 10 µM was found to be 101%.

Consider `COCC(=O)N1CCc2sccc2C1c1ccc(NCc2cccc(OC)c2)cc1` (stereo not shown) [CBK286454], for which the viability at 28.5 h, 10 µM turned out to be 92.9%.

Regarding `CC(=O)N1CCc2sccc2C1c1ccc(NCc2ccc(F)cc2F)cc1` (stereo not shown) [CBK286455], the viability at 28.5 h, 10 µM is 93.8%.

Take `COCC(=O)N1CCc2sccc2C1c1ccc(NCc2ccc(F)cc2F)cc1` (stereo not shown) [CBK286460]: the viability at 28.5 h, 10 µM was found to be 100%.

`CCOc1ccccc1CNc1ccc(C2c3ccsc3CCN2C(=O)COC)cc1` (stereo not shown) [CBK286461]: the viability at 28.5 h, 10 µM came out at 88.5%.

On to `O=C(Cn1nnc2ccccc21)c1ccc2c(c1)CCN2S(=O)(=O)c1ccccc1` [CBK286464], for which the viability at 28.5 h, 10 µM was 101%.

Consider `CC(=O)N1CCc2sccc2C1c1ccc(NC(=O)c2cccc(F)c2)cc1` (stereo not shown) [CBK286466], for which the viability at 28.5 h, 10 µM is 83.8%.

Consider `COCC(=O)N1CCc2sccc2C1c1ccc(NC(=O)c2ccc(OC)cc2)cc1` (stereo not shown) [CBK286467], for which the viability at 28.5 h, 10 µM came to 103%.

As for `COc1ccc(-c2ccc(CN(Cc3ccc4c(c3)OCO4)CC(C)O)cc2)cc1` (stereo not shown) [CBK286470], the viability at 28.5 h, 10 µM was 95%.

In the case of `COc1ccc(-c2ccccc2)cc1CN(Cc1ccc2c(c1)OCO2)CC(C)O` (stereo not shown) [CBK286471], the viability at 28.5 h, 10 µM turned out to be 89.7%.

For the compound `COc1cc2c(cc1CN(Cc1ccc3c(c1)OCO3)CC(C)O)CCC2` (stereo not shown) [CBK286473], the viability at 28.5 h, 10 µM is 91.6%.

`CC(O)CN(Cc1ccc(-n2cnc3ccccc32)cc1)Cc1ccc2c(c1)OCO2` (stereo not shown) [CBK286475]: the viability at 28.5 h, 10 µM amounted to 101%.

Regarding `Cc1ccccc1C1(O)CCN(C(=O)C(c2cccs2)c2cccs2)CC1` [CBK286483], the viability at 28.5 h, 10 µM was 106%.

For `Fc1ccc(CN(Cc2ccsc2)[C@@H]2COC[C@H]2c2ccc(F)cc2)cc1` [CBK286486], the viability at 28.5 h, 10 µM was 92.8%.

As for `COc1ccc(CN(Cc2cccs2)[C@@H]2COC[C@H]2c2ccc(F)cc2)cc1` [CBK286487], the viability at 28.5 h, 10 µM worked out at 90.6%.

Consider `COc1ccc(CN(Cc2ccc(NC(C)=O)cc2)[C@@H]2COC[C@H]2c2ccc(F)cc2)cc1` [CBK286488], for which the viability at 28.5 h, 10 µM stood at 105%.

Regarding `CN(C(=O)c1c[nH]nc1C1CCCN(Cc2ccnc3ccccc23)C1)C1CCCCC1` (stereo not shown) [CBK286491], the viability at 28.5 h, 10 µM was found to be 99.3%.

As for `COc1ccc(CC(=O)N2CCCCC2c2ccc(Cc3cccc(F)c3)nc2)cc1` (stereo not shown) [CBK286493], the viability at 28.5 h, 10 µM came to 90.3%.

For `Cc1ccc(C)c(C2CCCN2C(=O)c2ccc(=O)n(CC(=O)Nc3ccc(F)cc3)c2)c1` (stereo not shown) [CBK286495], the viability at 28.5 h, 10 µM is 93.4%.

Turning to `CC(C)(C(=O)N1CCC(CC(=O)NCCc2ccccc2F)CC1)c1ccc(F)cc1` [CBK286497], the viability at 28.5 h, 10 µM is 104%.

As to `COc1ccc(CC(=O)N2CCCC(c3cccc(Cc4cccc(C)c4)n3)C2)cc1` (stereo not shown) [CBK286498], the viability at 28.5 h, 10 µM is 99.8%.

`CCn1c(CN2CCCC2c2nc(N(C)C)ncc2-c2cccc(F)c2)nc2ccccc21` (stereo not shown) [CBK286500]: the viability at 28.5 h, 10 µM came to 102%.

Turning to `Cc1nn(C)cc1CN1CCCC1c1nc(N(C)C)ncc1-c1cccc(Cl)c1` (stereo not shown) [CBK286501], the viability at 28.5 h, 10 µM amounted to 86%.

As to `O=C(c1ccccc1)N1CCCC(c2cccc(Cc3ccc(Cl)cc3)n2)C1` (stereo not shown) [CBK286502], the viability at 28.5 h, 10 µM came to 99.5%.

`O=C(CN1CCCC(c2cccc(Cc3ccc(F)cc3)n2)C1)Nc1nccs1` (stereo not shown) [CBK286503]: the viability at 28.5 h, 10 µM is 93.1%.

As for `Cc1nc(CC(=O)N2CCCC(c3cccc(Cc4ccc(Cl)cc4)n3)C2)cs1` (stereo not shown) [CBK286505], the viability at 28.5 h, 10 µM amounted to 94.3%.

Consider `Cc1nn(C)cc1S(=O)(=O)N1CCCC(c2cccc(Cc3ccc(Cl)cc3)n2)C1` (stereo not shown) [CBK286506], for which the viability at 28.5 h, 10 µM was found to be 88.4%.

The values above are taken from paper PMC12040169 (PLOS Biology, 2025).
